# In patent US20080009418A1, “Selective Inhibitors” (Alchemia LTD., priority 2004, published 2008):
# How the values were obtained:
# Settings in all cases: compound at 10 μM
# Human Melanocortin (MC4) = target: T1, Human Melanocortin (MC4) (Homo sapiens, UniProt P32245); experiment: Radioligand binding, human melanocortin MC4 membranes, FlashPlate, [125I]-NDP-αMSH
# T1 construct: purchased Perkin Elmer Biosignal
# How it was run: (§1)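 Cloned human receptor membranes were coated onto FlashPlate wells and incubated with radioligand and compound (added from a 0.5 mM DMSO daughter plate) for 1 hour at room temperature in the dark. Scintillation counting gave percent inhibition, with DMSO defining total and reference ligand defining non-specific binding.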
# Human opioid (ORL1) = target: T2, Human opioid (ORL1) (Homo sapiens, UniProt P41146); experiment: Radioligand binding, human opioid ORL1 membranes, FlashPlate, [125I]-Nociceptin
# T2 construct: purchased Perkin Elmer Biosignal
# T2 sequence (P41146 whole entry): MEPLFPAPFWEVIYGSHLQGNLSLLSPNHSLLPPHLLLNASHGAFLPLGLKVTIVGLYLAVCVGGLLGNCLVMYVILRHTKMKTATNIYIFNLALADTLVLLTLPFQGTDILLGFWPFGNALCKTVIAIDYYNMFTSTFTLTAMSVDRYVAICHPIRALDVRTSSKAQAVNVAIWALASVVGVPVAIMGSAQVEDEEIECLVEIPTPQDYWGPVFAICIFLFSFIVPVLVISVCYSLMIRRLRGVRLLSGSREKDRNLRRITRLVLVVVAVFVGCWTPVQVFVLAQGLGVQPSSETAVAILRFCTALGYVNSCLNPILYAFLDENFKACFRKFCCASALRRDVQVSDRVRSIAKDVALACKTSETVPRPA
# How it was run: as §1
# Human μ-opioid (MOP) = target: T3, Human μ-opioid (MOP) (Homo sapiens, UniProt P35372); experiment: Radioligand binding, human μ-opioid (MOP) membranes, FlashPlate, [3H]-Naloxone
# T3 construct: purchased Perkin Elmer Biosignal
# T3 sequence (P35372 whole entry): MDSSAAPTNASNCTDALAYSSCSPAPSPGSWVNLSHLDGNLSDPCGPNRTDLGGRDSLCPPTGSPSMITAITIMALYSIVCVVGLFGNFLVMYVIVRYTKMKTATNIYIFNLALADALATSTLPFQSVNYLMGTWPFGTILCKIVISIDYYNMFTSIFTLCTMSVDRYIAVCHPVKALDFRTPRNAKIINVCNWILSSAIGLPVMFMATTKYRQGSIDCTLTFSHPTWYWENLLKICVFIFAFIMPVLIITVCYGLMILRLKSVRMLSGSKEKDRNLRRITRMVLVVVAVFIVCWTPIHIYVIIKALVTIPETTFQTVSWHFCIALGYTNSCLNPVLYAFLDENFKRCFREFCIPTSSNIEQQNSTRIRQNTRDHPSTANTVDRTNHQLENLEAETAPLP
# How it was run: as §1
# Human δ-opioid (DOP) = target: T4, Human δ-opioid (DOP) (Homo sapiens, UniProt P41143); experiment: Radioligand binding, human δ-opioid (DOP) membranes, FlashPlate, [3H]-Bremazocine
# T4 construct: purchased Perkin Elmer Biosignal
# T4 sequence (P41143 whole entry): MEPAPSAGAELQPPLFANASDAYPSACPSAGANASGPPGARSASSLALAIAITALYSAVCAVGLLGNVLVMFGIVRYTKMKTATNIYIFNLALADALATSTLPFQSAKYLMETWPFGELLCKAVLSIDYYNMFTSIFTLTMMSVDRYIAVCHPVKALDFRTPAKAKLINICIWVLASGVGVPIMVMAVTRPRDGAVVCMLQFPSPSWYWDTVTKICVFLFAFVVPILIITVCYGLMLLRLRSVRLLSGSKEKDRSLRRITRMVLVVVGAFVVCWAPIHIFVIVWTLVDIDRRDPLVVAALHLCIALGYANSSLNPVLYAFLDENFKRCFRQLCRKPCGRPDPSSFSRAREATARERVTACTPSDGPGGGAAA
# How it was run: as §1
# Human Melanocortin (MC3) = target: T5, Human Melanocortin (MC3) (Homo sapiens, UniProt P41968); experiment: Radioligand binding, human melanocortin MC3 membranes, FlashPlate, [125I]-NDP-αMSH
# T5 construct: purchased Perkin Elmer Biosignal
# T5 sequence (P41968 whole entry): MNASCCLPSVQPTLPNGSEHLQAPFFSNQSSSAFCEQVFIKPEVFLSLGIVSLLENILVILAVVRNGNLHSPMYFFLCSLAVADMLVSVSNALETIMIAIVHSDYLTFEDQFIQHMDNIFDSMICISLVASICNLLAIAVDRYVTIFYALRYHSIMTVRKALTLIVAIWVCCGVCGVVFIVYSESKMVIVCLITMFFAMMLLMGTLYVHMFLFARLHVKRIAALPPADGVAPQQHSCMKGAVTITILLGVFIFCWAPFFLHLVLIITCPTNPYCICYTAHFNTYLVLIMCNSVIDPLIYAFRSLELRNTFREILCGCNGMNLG
# How it was run: as §1
# Human κ-Opioid (KOP) = target: T6, Human κ-Opioid (KOP) (Homo sapiens, UniProt P41145); experiment: Radioligand binding, human κ-opioid (KOP) membranes, filtration, [3H]-Diprenorphine
# T6 construct: purchased Perkin Elmer Biosignal
# T6 sequence (P41145 whole entry): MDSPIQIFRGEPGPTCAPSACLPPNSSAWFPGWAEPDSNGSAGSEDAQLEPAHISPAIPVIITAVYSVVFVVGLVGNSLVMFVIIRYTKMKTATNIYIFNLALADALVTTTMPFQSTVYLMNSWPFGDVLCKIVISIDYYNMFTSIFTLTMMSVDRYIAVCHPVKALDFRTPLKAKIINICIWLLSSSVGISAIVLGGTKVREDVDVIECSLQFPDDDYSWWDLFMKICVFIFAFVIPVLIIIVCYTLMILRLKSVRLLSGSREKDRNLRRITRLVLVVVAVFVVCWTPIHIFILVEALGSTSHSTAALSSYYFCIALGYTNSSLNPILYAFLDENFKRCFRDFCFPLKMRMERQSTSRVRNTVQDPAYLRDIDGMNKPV
# How it was run: (§2)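 Membranes from cloned human receptors were incubated with compound and radioligand for 1 hour at room temperature. Bound ligand was collected on 0.3% PEI-soaked filters, washed with cold 50 mM Tris-HCl pH 7.4, and counted by scintillation. Percent inhibition was computed against DMSO totals and reference-ligand nonspecific wells.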
# Mouse urotensin (mUR2) = target: T7, Mouse urotensin (mUR2) (Mus musculus, UniProt Q8VIH9); experiment: Radioligand binding, mouse urotensin mUR2 membranes, FlashPlate, [125I]-Urotensin II
# T7 construct: purchased Perkin Elmer Biosignal
# T7 sequence (Q8VIH9 1-385): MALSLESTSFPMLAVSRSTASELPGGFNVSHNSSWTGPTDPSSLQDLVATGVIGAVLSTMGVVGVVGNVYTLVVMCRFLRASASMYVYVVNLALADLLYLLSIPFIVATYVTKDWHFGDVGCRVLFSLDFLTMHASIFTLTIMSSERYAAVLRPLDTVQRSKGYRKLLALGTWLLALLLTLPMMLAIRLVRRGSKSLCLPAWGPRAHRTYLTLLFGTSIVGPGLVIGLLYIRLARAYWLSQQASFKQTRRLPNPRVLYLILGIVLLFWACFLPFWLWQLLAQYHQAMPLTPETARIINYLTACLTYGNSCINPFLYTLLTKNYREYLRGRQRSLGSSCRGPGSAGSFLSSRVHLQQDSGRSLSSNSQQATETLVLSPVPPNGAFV
# How it was run: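 Cloned mouse urotensin (mUR2) receptor membranes from Perkin Elmer Biosignal were immobilized in FlashPlate microplates using a proprietary coating. Each well got 19.5 μl buffer, then 0.5 μl of DMSO, reference ligand, or compound. Adding 5 μl of [125I]-Urotensin II, diluted to 5× final concentration in binding buffer, started binding. Plates were sealed with TopSeal-A and incubated 1 hour at room temperature in the dark. Wells were counted for 30 seconds each on a TopCount after a 60-second delay, and percentage inhibition was calculated.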
# Human neurokinin (NK1) = target: T8, Human neurokinin (NK1) (Homo sapiens, UniProt P25103); experiment: Radioligand binding, human neurokinin NK1 membranes, filtration, [125I]-Substance P
# T8 construct: purchased Perkin Elmer Biosignal
# T8 sequence (P25103 whole entry): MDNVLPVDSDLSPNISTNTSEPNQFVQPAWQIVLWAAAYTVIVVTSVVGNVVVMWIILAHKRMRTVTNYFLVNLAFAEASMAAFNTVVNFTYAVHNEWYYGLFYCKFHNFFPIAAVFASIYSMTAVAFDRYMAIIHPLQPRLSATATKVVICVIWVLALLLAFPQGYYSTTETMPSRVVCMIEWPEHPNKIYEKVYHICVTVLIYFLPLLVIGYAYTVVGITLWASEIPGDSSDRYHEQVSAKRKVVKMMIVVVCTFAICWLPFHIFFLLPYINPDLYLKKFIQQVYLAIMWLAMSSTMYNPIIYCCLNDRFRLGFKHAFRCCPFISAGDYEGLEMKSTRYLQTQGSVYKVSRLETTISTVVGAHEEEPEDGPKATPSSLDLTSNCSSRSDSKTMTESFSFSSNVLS
# How it was run: as §2
# Human melanocortin (MC5) = target: T9, Human melanocortin (MC5) (Homo sapiens, UniProt P33032); experiment: Radioligand binding, human melanocortin MC5 membranes, FlashPlate, [125I]-NDP-αMSH
# T9 construct: purchased Perkin Elmer Biosignal
# T9 sequence (P33032 whole entry): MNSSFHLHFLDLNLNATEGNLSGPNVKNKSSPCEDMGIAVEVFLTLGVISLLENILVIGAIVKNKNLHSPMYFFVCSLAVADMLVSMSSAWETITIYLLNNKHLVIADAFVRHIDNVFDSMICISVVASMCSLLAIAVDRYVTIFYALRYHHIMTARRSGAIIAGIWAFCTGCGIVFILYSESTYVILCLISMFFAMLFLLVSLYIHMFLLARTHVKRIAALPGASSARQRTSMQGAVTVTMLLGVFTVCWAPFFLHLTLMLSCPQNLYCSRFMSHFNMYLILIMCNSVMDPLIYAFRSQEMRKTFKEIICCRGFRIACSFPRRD
# How it was run: as §1
# [1] = target: T10, Human melanin-concentrating hormone (MCH1) (Homo sapiens, UniProt Q99705); experiment: Radioligand binding, human melanin-concentrating hormone MCH1 membranes, FlashPlate, [125I]-S36057
# T10 construct: purchased Perkin Elmer Biosignal
# T10 sequence (Q99705 whole entry): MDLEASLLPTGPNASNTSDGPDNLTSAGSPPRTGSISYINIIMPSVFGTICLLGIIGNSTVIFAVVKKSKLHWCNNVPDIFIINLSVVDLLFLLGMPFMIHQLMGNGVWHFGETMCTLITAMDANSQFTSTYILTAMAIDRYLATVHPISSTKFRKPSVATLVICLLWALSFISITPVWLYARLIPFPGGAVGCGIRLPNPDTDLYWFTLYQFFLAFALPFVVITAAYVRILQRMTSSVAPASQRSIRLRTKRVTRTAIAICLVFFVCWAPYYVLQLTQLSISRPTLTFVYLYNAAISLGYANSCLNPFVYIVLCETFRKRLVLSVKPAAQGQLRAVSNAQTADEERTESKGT
# How it was run: as §1
# [2] = target: T11, Human neuropeptide Y (NPY-Y1) (Homo sapiens, UniProt P25929); experiment: Radioligand binding, human neuropeptide Y NPY-Y1 membranes, FlashPlate, [125I]-PYY
# T11 construct: purchased Perkin Elmer Biosignal
# T11 sequence (P25929 1-384): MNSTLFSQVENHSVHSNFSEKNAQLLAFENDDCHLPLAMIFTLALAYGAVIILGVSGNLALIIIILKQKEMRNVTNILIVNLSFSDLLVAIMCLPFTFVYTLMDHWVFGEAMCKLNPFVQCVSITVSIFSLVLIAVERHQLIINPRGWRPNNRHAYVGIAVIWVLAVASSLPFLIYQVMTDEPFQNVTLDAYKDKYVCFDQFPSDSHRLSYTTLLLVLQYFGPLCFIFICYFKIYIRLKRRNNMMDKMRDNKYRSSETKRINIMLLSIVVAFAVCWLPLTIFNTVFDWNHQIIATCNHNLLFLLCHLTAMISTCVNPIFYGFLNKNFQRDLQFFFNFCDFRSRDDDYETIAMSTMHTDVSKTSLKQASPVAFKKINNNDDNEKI
# How it was run: as §1
# T1 sequence (P32245 whole entry): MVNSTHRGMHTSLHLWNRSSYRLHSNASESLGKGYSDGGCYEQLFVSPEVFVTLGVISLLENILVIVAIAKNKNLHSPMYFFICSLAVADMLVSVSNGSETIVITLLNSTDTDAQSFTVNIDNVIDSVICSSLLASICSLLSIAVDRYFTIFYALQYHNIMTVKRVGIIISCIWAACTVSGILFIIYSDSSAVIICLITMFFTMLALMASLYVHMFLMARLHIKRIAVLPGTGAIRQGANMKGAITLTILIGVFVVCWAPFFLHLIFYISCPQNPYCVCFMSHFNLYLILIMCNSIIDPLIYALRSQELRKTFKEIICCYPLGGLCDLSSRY
smiles,measurement,setting,value
CO[C@H]1[C@H](O)[C@@H](COCc2ccc(-c3ccccc3)cc2)OC(OCc2ccccc2)[C@@H]1NC(=O)CCNC(=N)N (stereo partly drawn) [compound 83],A4 radioligand binding inhibition,Human Melanocortin (MC4); human melanocortin MC4 membranes,− (“−” indicates less than 50% inhibition at 10 μM)
same,A10 radioligand binding inhibition,Human opioid (ORL1); human ORL1 membranes,− (“−” indicates less than 50% inhibition at 10 μM)
same,A7 radioligand binding inhibition,Human μ-opioid (MOP); human μ-opioid (MOP) membranes,+ (“+” indicates greater than 50% inhibition at 10 μM)
same,A1 radioligand binding inhibition,Human δ-opioid (DOP); human δ-opioid (DOP) membranes,− (“−” indicates less than 50% inhibition at 10 μM)
same,A3 radioligand binding inhibition,Human Melanocortin (MC3); human melanocortin MC3 membranes,− (“−” indicates less than 50% inhibition at 10 μM)
same,A2 radioligand binding inhibition,Human κ-Opioid (KOP); human κ-opioid (KOP) membranes,− (“−” indicates less than 50% inhibition at 10 μM)
same,A11 radioligand binding inhibition,Mouse urotensin (mUR2); mouse urotensin mUR2 membranes,− (“−” indicates less than 50% inhibition at 10 μM)
same,A8 radioligand binding inhibition,Human neurokinin (NK1); human neurokinin NK1 membranes,+ (“+” indicates greater than 50% inhibition at 10 μM)
same,A5 radioligand binding inhibition,Human melanocortin (MC5); human melanocortin MC5 membranes,+ (“+” indicates greater than 50% inhibition at 10 μM)
same,A6 radioligand binding inhibition,[1]; human MCH1 membranes,− (“−” indicates less than 50% inhibition at 10 μM)
same,A9 radioligand binding inhibition,[2]; human NPY-Y1 membranes,− (“−” indicates less than 50% inhibition at 10 μM)
N=C(N)NCC(=O)N[C@H]1C(OCc2ccc(Cl)cc2)O[C@H](COCc2ccccc2)[C@@H](O)[C@@H]1OCc1ccc(-c2ccccc2)cc1 (stereo partly drawn) [compound 519],"A4: inhibition of radioligand binding, human melanocortin (MC4)","Human Melanocortin (MC4); [125I]-NDP-αMSH, 10 µM",+ (“+” indicates greater than 50% inhibition at 10 μM)
same,"A10: inhibition of radioligand binding, human opioid (ORL1)",Human opioid (ORL1); [125I]-Nociceptin,− (“−” indicates less than 50% inhibition at 10 μM)
same,"A7: inhibition of radioligand binding, human μ-opioid (MOP)",Human μ-opioid (MOP); [3H]-Naloxone,− (“−” indicates less than 50% inhibition at 10 μM)
same,"A1: inhibition of radioligand binding, human δ-opioid (DOP)",Human δ-opioid (DOP); [3H]-Bremazocine,− (“−” indicates less than 50% inhibition at 10 μM)
same,"A3: inhibition of radioligand binding, human melanocortin (MC3)","Human Melanocortin (MC3); [125I]-NDP-αMSH, 10 µM",+ (“+” indicates greater than 50% inhibition at 10 μM)
same,"A2: inhibition of radioligand binding, human κ-opioid (KOP)",Human κ-Opioid (KOP); [3H]-Diprenorphine,− (“−” indicates less than 50% inhibition at 10 μM)
same,"A11: inhibition of radioligand binding, mouse urotensin (mUR2)",Mouse urotensin (mUR2); [125I]-Urotensin II,− (“−” indicates less than 50% inhibition at 10 μM)
same,"A8: inhibition of radioligand binding, human neurokinin (NK1)",Human neurokinin (NK1); [125I]-Substance P,+ (“+” indicates greater than 50% inhibition at 10 μM)
same,"A5: inhibition of radioligand binding, human melanocortin (MC5)","Human melanocortin (MC5); [125I]-NDP-αMSH, 10 µM",+ (“+” indicates greater than 50% inhibition at 10 μM)
same,"A6: inhibition of radioligand binding, human melanin-concentrating hormone (MCH1)","[1]; [125I]-S36057, 10 µM",+ (“+” indicates greater than 50% inhibition at 10 μM)
same,"A9: inhibition of radioligand binding, human neuropeptide Y (NPY-Y1)",[2]; [125I]-PYY,− (“−” indicates less than 50% inhibition at 10 μM)
N=C(N)NCCC(=O)NC1C(OCc2ccc(Cl)cc2)OC(COCc2ccc3ccccc3c2)C(O)C1OCc1ccc(-c2ccccc2)cc1 (stereo not drawn) [compound 432],A4: inhibition of radioligand binding,"Human Melanocortin (MC4); [125I]-NDP-αMSH, human MC4 membranes",+ (“+” indicates greater than 50% inhibition at 10 μM)
same,A10: inhibition of radioligand binding,"Human opioid (ORL1); [125I]-Nociceptin, human ORL1 membranes",− (“−” indicates less than 50% inhibition at 10 μM)
same,A7: inhibition of radioligand binding,"Human μ-opioid (MOP); [3H]-Naloxone, human MOP membranes",− (“−” indicates less than 50% inhibition at 10 μM)
same,A1: inhibition of radioligand binding,"Human δ-opioid (DOP); [3H]-Bremazocine, human DOP membranes",− (“−” indicates less than 50% inhibition at 10 μM)
same,A3: inhibition of radioligand binding,"Human Melanocortin (MC3); [125I]-NDP-αMSH, human MC3 membranes",+ (“+” indicates greater than 50% inhibition at 10 μM)
same,A2: inhibition of radioligand binding,"Human κ-Opioid (KOP); [3H]-Diprenorphine, human KOP membranes",− (“−” indicates less than 50% inhibition at 10 μM)
same,A11: inhibition of radioligand binding,"Mouse urotensin (mUR2); [125I]-Urotensin II, mouse mUR2 membranes",− (“−” indicates less than 50% inhibition at 10 μM)
same,A8: inhibition of radioligand binding,"Human neurokinin (NK1); [125I]-Substance P, human NK1 membranes",+ (“+” indicates greater than 50% inhibition at 10 μM)
same,A5: inhibition of radioligand binding,"Human melanocortin (MC5); [125I]-NDP-αMSH, human MC5 membranes",+ (“+” indicates greater than 50% inhibition at 10 μM)
same,A6: inhibition of radioligand binding,"[1]; [125I]-S36057, human MCH1 membranes",+ (“+” indicates greater than 50% inhibition at 10 μM)
same,A9: inhibition of radioligand binding,"[2]; [125I]-PYY, human NPY-Y1 membranes",− (“−” indicates less than 50% inhibition at 10 μM)
